Measured values as given in patent US20170325459A1, “BICYCLIC COMPOUNDS AS PEST CONTROL AGENTS” (Bayer CropScience Aktiengesellschaft, priority 2014, published 2017).

Tests used:
[1] = log P by HPLC (OECD Guideline 117), method [a] acidic range pH 2.7; format: physicochemical; details: for chromatographic logP: reversed-phase (RP) C18 HPLC column
Protocol: (§1) The log P values were determined in accordance with OECD Guideline 117 (EC Directive 92/69/EEC) by HPLC (high-performance liquid chromatography) using reversed-phase (RP) columns (C18), by the following methods: [a] The LC-MS determination in the acidic range is carried out at pH 2.7 with 0.1% aqueous formic acid and acetonitrile (contains 0.1% formic acid) as eluents; linear gradient from 10% acetonitrile to 95% acetonitrile. [b] LC-MS determination in the neutral range is effected at pH 7.8 with 0.001 molar aqueous ammonium hydrogencarbonate solution and acetonitrile as eluents; linear gradient from 10% acetonitrile to 95% acetonitrile. Calibration is effected using unbranched alkan-2-ones (having 3 to 16 carbon atoms) with known log P values (log P values determined on the basis of the retention times by linear interpolation between two successive alkanones).

[2] = log P by HPLC (OECD Guideline 117), method [b] neutral range pH 7.8; format: physicochemical; details: for chromatographic logP: reversed-phase (RP) C18 HPLC column
Protocol: as §1

[3] = test system: Myzus persicae; test: Myzus persicae spray test; format: in vivo; details: Chinese cabbage leaf discs, after 6 days
Protocol: Myzus persicae—Spray Test Solvent: 78 parts by weight of acetone • • 1.5 parts by weight of dimethylformamide Emulsifier: alkylaryl polyglycol ether To produce a suitable active ingredient formulation, 1 part by weight of active ingredient is dissolved using the specified parts by weight of solvent and made up with water containing an emulsifier concentration of 1000 ppm until the desired concentration is attained. To produce further test concentrations, the formulation is diluted with emulsifier-containing water. Discs of Chinese cabbage leaves (Brassica pekinensis) infested by all stages of the green peach aphid (Myzus persicae) are sprayed with an active ingredient formulation of the desired concentration. After 6 days, the efficacy in % is determined. 100% means that all the aphids have been killed and 0% means that none of the aphids have been killed.

Row | logP[a] [1] | Compound | efficacy (aphids killed) ([3]; application rate 500 g/ha) | other results
1 | 2.64 | CSCCC(=O)N(C)c1ccc2nc(-c3cncc(F)c3)sc2c1 [compound 79] | 100% | –
2 | 2.08 | CSCCC(=O)N(C)c1ccc2nc(-c3cccnc3)sc2c1 [compound 78] | 100% | –
3 | 1.22 | CS(=O)(=O)CCC(=O)Nc1ccc2nc(-c3cccnc3)sc2c1 [compound 80] | – | efficacy (aphids killed) ([3]; application rate 20 g/ha): 100%
4 | 1.49 | CN(C(=O)C1CCS(=O)(=O)C1)c1ccc2nc(-c3cccnc3)sc2c1 (stereo not drawn) [compound 82] | 90% | –
5 | 2.63 | O=C(Nc1ccc2nc(-c3cccnc3)sc2c1)c1cccc([S+]([O-])C(F)(F)F)c1 (stereo not drawn) [compound 86] | – | –
6 | 3.24 | CN(C(=O)c1cccc(SC(F)(F)F)c1)c1ccc2nc(-c3cccnc3)sc2c1 [compound 84] | – | –
7 | 2.31 | CSCCNC(=O)c1ccc2nc(-c3cncc(F)c3)sc2c1 [compound 70] | 90% | –
8 | 2.39 | CC(F)(F)CNC(=O)c1ccc2nc(-c3cncc(F)c3)sc2c1 [compound 68] | 100% | –
9 | 1.94 | CN(C(=O)C1CCS(=O)(=O)C1)c1ccc2nc(-c3cncc(F)c3)sc2c1 (stereo not drawn) [compound 83] | – | –
10 | 3.76 | O=C(Nc1cccc(SC(F)(F)F)c1)c1ccc2nc(-c3cccnc3)sc2c1 [compound 73] | – | –

The remaining lines, values behind:

Row | Compound | logP[a] [1] | efficacy (aphids killed) ([3]; application rate 500 g/ha) | other results
11 | c1ccc(CNc2ccc3nc(-c4cccnc4)sc3c2)cc1 [compound 16] | 2.91 | – | logP[b] [2]: 3.12
12 | COc1nn(-c2ccc3nc(-c4cccnc4)sc3c2)c(=O)n1C [compound 50] | – | 90% | –
13 | c1cncc(-c2nc3ccc(N4CCOCC4)cc3s2)c1 [compound 15, 6-(Morpholin-4-yl)-2-(pyridin-3-yl)-1,3-benzothiazole] | – | – | chromatographic logP [1]: 2; chromatographic logP [2]: 2.14
14 | CNC(=O)c1ccc2nc(-c3cccnc3)sc2c1 [compound 57] | 1.22 | 100% | –
15 | c1ccc(Nc2ccc3nc(-c4cccnc4)sc3c2)nc1 [compound 24, N-(Pyridin-2-yl)-2-(pyridin-3-yl)-1,3-benzothiazol-6-amine] | – | – | chromatographic logP [1]: 1.04; chromatographic logP [2]: 2.47
16 | CSCn1cc(-c2ccc3nc(-c4cccnc4)sc3c2)cn1 [compound 38, 6-{1-[(Methylsulphanyl)methyl]-1H-pyrazol-4-yl}-2-(pyridin-3-yl)-1,3-benzothiazole] | – | – | chromatographic logP [1]: 2.4; chromatographic logP [2]: 2.54
17 | CSCc1nn(-c2ccc3nc(-c4cccnc4)sc3c2)c(=O)n1C [compound 55, 4-Methyl-5-[(methylsulphanyl)methyl]-2-[2-(pyridin-3-yl)-1,3-benzothiazol-6-yl]-2,4-dihydro-3H-1,2,4-triazol-3-one] | – | – | chromatographic logP [1]: 2.23; chromatographic logP [2]: 2.36
18 | Cn1cncc(-c2ccc3nc(-c4cccnc4)sc3c2)c1=O [compound 43] | 1.34 | – | logP[b] [2]: 1.51
19 | O=C(NCc1ccccn1)c1ccc2nc(-c3cccnc3)sc2c1 [compound 33, 2-(Pyridin-3-yl)-N-(pyridin-2-ylmethyl)-1,3-benzothiazole-6-carboxamide] | – | – | chromatographic logP [1]: 1.15; pest or weed control at 500 g/ha ([3]; Myzus persicae, foliar, 144 h, application rate 500 g/ha, read-out: efficacy (aphids killed)): 100%
20 | CON(C)C(=O)c1ccc2nc(-c3cncc(F)c3)sc2c1 [compound 66] | 2.16 | 100% | –
21 | Clc1ccccc1-c1ccc2nc(-c3cccnc3)sc2c1 [compound 6] | 4.05 | – | logP[b] [2]: 4.2
22 | CC(Nc1ccc2nc(-c3cccnc3)sc2c1)c1ccccc1 (stereo not drawn) [compound 17] | – | – | chromatographic logP [1]: 3.23; chromatographic logP [2]: 3.33
23 | O=C(Nc1ccc2nc(-c3cncc(F)c3)sc2c1)c1cccc([S+]([O-])C(F)(F)F)c1 (stereo not drawn) [compound 87, N-[2-(5-Fluoropyridin-3-yl)-1,3-benzothiazol-6-yl]-3-[(trifluoromethyl)sulphinyl]benzamide] | – | – | chromatographic logP [1]: 3.27
24 | CN(C(=O)c1cccc(SC(F)(F)F)c1)c1ccc2nc(-c3cncc(F)c3)sc2c1 [compound 85, N-[2-(5-Fluoropyridin-3-yl)-1,3-benzothiazol-6-yl]-N-methyl-3-[(trifluoromethyl)sulphanyl]benzamide] | – | – | chromatographic logP [1]: 3.88
25 | O=C(Nc1cccc([S+]([O-])C(F)(F)F)c1)c1ccc2nc(-c3cncc(F)c3)sc2c1 (stereo not drawn) [compound 75, 2-(5-Fluoropyridin-3-yl)-N-{3-[(trifluoromethyl)sulphinyl]phenyl}-1,3-benzothiazole-6-carboxamide] | – | – | chromatographic logP [1]: 3.26
26 | CCN(C)C(=O)c1ccc2nc(-c3cccnc3)sc2c1 [compound 61] | 1.71 | 100% | –
27 | c1cncc(-c2nc3ccc(NCC4CC4)cc3s2)c1 [compound 14] | 2.5 | – | logP[b] [2]: 2.94
28 | c1ccc(-c2ccc3nc(-c4cccnc4)sc3c2)cc1 [compound 1] | 3.7 | – | logP[b] [2]: 3.87
29 | Cc1cc(C)c([S+]([O-])CC(F)(F)F)cc1Nc1ccc2nc(-c3cccnc3)sc2c1 (stereo not drawn) [compound 19, N-{2,4-Dimethyl-5-[(2,2,2-trifluoroethyl)sulphinyl]phenyl}-2-(pyridin-3-yl)-1,3-benzothiazol-6-amine] | – | – | chromatographic logP [2]: 3.07
30 | Cc1cc(F)c(Nc2ccc3nc(-c4cccnc4)sc3c2)cc1[S+]([O-])CC(F)(F)F (stereo not drawn) [compound 21, N-{2-Fluoro-4-methyl-5-[(2,2,2-trifluoroethyl)sulphinyl]phenyl}-2-(pyridin-3-yl)-1,3-benzothiazol-6-amine] | – | – | chromatographic logP [1]: 2.85; chromatographic logP [2]: 2.9
31 | Cn1c(OCC(F)(F)F)nn(-c2ccc3nc(-c4cccnc4)sc3c2)c1=O [compound 53] | 2.8 | – | logP[b] [2]: 2.88

Row | Compound | logP[a] [1] | efficacy (aphids killed) ([3]; application rate 500 g/ha) | other results
32 | O=C(NCC(F)(F)F)c1ccc2nc(-c3cccnc3)sc2c1 [compound 63] | 2.02 | – | –
33 | O=C(NCC(F)(F)F)c1ccc2nc(-c3cncc(F)c3)sc2c1 [compound 64] | 2.51 | 90% | –
34 | CON(C)C(=O)c1ccc2nc(-c3cccnc3)sc2c1 [compound 65] | 1.64 | 100% | –
35 | CNC(=O)c1ccc2nc(-c3cncc(F)c3)sc2c1 [compound 58] | 1.67 | 100% | –
36 | CN(C)C(=O)c1ccc2nc(-c3cncc(F)c3)sc2c1 [compound 60] | 1.9 | 100% | –
37 | CCSc1ccccc1Nc1ccc2nc(-c3cccnc3)sc2c1 [compound 22] | 4.32 | – | logP[b] [2]: 4.44
38 | Fc1ccccc1-c1ccc2nc(-c3cccnc3)sc2c1 [compound 5] | 3.7 | – | logP[b] [2]: 3.78
39 | Cn1ccc(-c2ccc3nc(-c4cccnc4)sc3c2)n1 [compound 36] | 2.05 | – | logP[b] [2]: 2.03
40 | Cn1c(SCC(F)(F)F)nn(-c2ccc3nc(-c4cccnc4)sc3c2)c1=O [compound 54] | 2.84 | – | logP[b] [2]: 2.91
41 | CCN(C)C(=O)c1ccc2nc(-c3cncc(F)c3)sc2c1 [compound 62] | 2.2 | 100% | –
42 | O=C(Nc1cccc(SC(F)(F)F)c1)c1ccc2nc(-c3cncc(F)c3)sc2c1 [compound 74, 2-(5-Fluoropyridin-3-yl)-N-{3-[(trifluoromethyl)sulphanyl]phenyl}-1,3-benzothiazole-6-carboxamide] | – | – | chromatographic logP [1]: 4.29
43 | c1cncc(-c2nc3ccc(-n4cncn4)cc3s2)c1 [compound 31, 2-(Pyridin-3-yl)-6-(1H-1,2,4-triazol-1-yl)-1,3-benzothiazole] | – | – | chromatographic logP [2]: 1.63
44 | 5-(Ethylsulphanyl)-4-methyl-2-[2-(pyridin-3-yl)-1,3-benzothiazol-6-yl]-2,4-dihydro-33H-1,2,4-triazol-3-one [compound 52] | 2.84 | – | logP[b] [2]: 2.97
45 | CS(=O)(=O)CCNC(=O)c1ccc2nc(-c3cncc(F)c3)sc2c1 [compound 72] | – | 90% | –
46 | Ic1ccc2nc(-c3cccnc3)sc2c1 [I-a-2, 6-Iodo-2-(pyridin-3-yl)-1,3-benzothiazole] | – | – | chromatographic logP [1]: 3.37; chromatographic logP [2]: 3.39
47 | c1cncc(-c2nc3ccc(-n4cccn4)cc3s2)c1 [compound 26] | – | – | logP[b] [2]: 2.2
48 | CN(C)C(=O)c1ccc2nc(-c3cccnc3)sc2c1 [compound 59] | 1.42 | 100% | –
49 | CC[S+]([O-])c1ccccc1Nc1ccc2nc(-c3cccnc3)sc2c1 (stereo not drawn) [compound 23] | 2.25 | – | logP[b] [2]: 2.24
50 | CCC(=O)N(C)c1ccc2nc(-c3cccnc3)sc2c1 [compound 76, N-Methyl-N-[2-(pyridin-3-yl)-1,3-benzothiazol-6-yl]propanamide] | – | – | chromatographic logP [1]: 1.84
51 | CC1(C)OB(c2ccc3nc(-c4cccnc4)sc3c2)OC1(C)C [I-h-1, 2-(Pyridin-3-yl)-6-(4,4,5,5-tetramethyl-1,3,2-dioxaborolan-2-yl)-1,3-benzothiazole] | – | – | chromatographic logP [1]: 4.03; chromatographic logP [2]: 4.14
